According to PubChem BioAssay AID624270 (Broad Institute, 2012):
Active and inactive are the calls of the source. How the calls were made is not given here.

Test system: V. cholerae BH1578 lux luminescence, 6 h
Test: Cholera quorum agonist confirmation, luxS deficient cqsA deficient strain BH1578, luminescence (AID 624270)
Conditions: not given

Structure (SMILES)	AC50
COc1ccc(Cl)cc1NC(=O)COC(=O)c1ccc(C)o1	63.8 nM
O=C(Cc1ccc(-c2ccccc2)cc1)NC1CCCC1	104 nM
COc1ccccc1NC(=O)COC(=O)c1cc2c(s1)CCC2	66.2 nM
CCCn1nnnc1NCc1ccc(N2CCCC2)cc1	13.8 nM
CCCn1nnnc1NCc1ccc(N(CC)CC)cc1	54.8 nM
O=c1ncn(-c2cccc(Cl)c2)c2ccccc12	1.29 nM
CCn1nnnc1NCc1ccc(N2CCCC2)cc1	4.14 nM
O=C(Nc1nnc(-c2ccc3c(c2)OCCO3)o1)C1CCCCC1	1380 nM
CCOc1ccc(Nc2ccc3nonc3c2[N+](=O)[O-])cc1	183 nM
Cc1c(Cl)cccc1-n1cnc(=O)c2ccccc21	> 35000 nM (inactive)
COc1ccccc1NC(=O)COC(=O)c1oc2ccccc2c1C	1570 nM
Cc1ccc2cc3c(NC(=O)c4ccco4)nn(C)c3nc2c1	2870 nM
CCC(C)NC(=O)Cc1ccc(-c2ccccc2)cc1 (stereo not given)	1240 nM
CCCn1nnnc1NCc1ccc(C(C)C)cc1	45.2 nM
COc1ccccc1NC(=O)COC(=O)c1ccc(C)cc1	397 nM
Cc1ccc(OCCNC(=O)c2cccc(C)c2)cc1	96 nM

Test system: not listed separately
Test: as above
Conditions: V. cholerae BH1578 lux luminescence, 6 h; at 35 µM (top of the series)

Structure (SMILES)	activation (light induction)
Cc1ccc(CC(=O)NC2CCCC2)cc1	15.8% (inactive)
CCCn1nnnc1NCc1ccccc1Cl	1.22% (inactive)
CCn1c(CC(=O)Nc2cccc(Cl)c2Cl)nnc1SCCOc1ccc(OC)cc1	1.79% (inactive)
CCn1nnc(NCc2ccc(C)cc2)n1	0.27% (inactive)
